Experiments:
Miapaca2/18.2 = assay: Efficacy against subcutaneous xenograft tumors of human pancreatic cancer Miapaca2/18.2 in mice; format: in vivo
Protocol: (§1) NOD-Scid mice (7 weeks old, female) were purchased from Shanghai Lingchang Biotechnology Co., Ltd. Each mouse was subcutaneously inoculated with 1 × 10^7 Miapaca2/18.2 cells. When tumor volume reached 60 mm^3 to 150 mm^3, the mice were grouped according to tumor volume and then the medicaments were administered intraperitoneally (IP) at an injection volume of 0.1 mL per 10 g of body weight.

KATO III/18.2 = assay: Efficacy against subcutaneous xenograft tumors of human gastric cancer KATO III/18.2 in mice; format: in vivo, NOD-Scid mice
Protocol: as §1, with “× 10^7 KATO III/18.2 cells. When” for “× 10^7 Miapaca2/18.2 cells. When”, “to tumor volume, and then” for “to tumor volume and then”

Structure (SMILES)	tumor growth inhibition (Miapaca2/18.2; Day 14 (first dose Day 0), M5 monoclonal antibody or Human IgG1 10 mg/kg IP BIW 4 times, gemcitabine 75 mg/kg IP Q4D 2 times)	maximum weight loss (Miapaca2/18.2; mice, on Day 7)	mice died (Miapaca2/18.2; ten mice per group)	tumor growth inhibition (KATO III/18.2; Day 23 (first dose Day 0), M5 monoclonal antibody or Human IgG1 10 mg/kg IP BIW 6 times, oxaliplatin 8 mg/kg IP Q4D 3 times)	maximum weight losses (KATO III/18.2; mice, on Day 10)
Nc1ccn([C@@H]2O[C@H](CO)[C@@H](O)C2(F)F)c(=O)n1 [gemcitabine]	53%	9.2%	one out of ten		
O=C1[O][Pt]2([NH][C@@H]3CCCC[C@H]3[NH]2)[O]C1=O [oxaliplatin]				31%	5.5%

Source: patent publication EP4796126A1, “COMBINATION OF CLDN18_2 ANTIBODY AND CHEMOTHERAPEUTIC DRUG AND USE THEREOF” (Jiangsu Aosaikang Biopharmaceutical Co., Ltd., priority 2023, dated 2025)
